Tests used:
MOLM-13 cells = test: CellTiter-Blue cell viability, MOLM-13; format: cell-based; settings: Homo sapiens, 72 hrs exposure
Description: (§1) Anti-cancer efficacy of exemplary compounds of this application was assessed in vitro in different cancer cell lines. Cell viability was examined following treatment at various concentration of inhibitor (0.097656-50 μM) using a cell Titer-Blue cell viability assay. 1×10^4 cells (NHF, MV4-11, K562 and MOLM-13 cells)/well were plated in 96-well assay plates in culture medium. All cells were grown in DMEM, IMDM and RPMI-1640 supplemented with 10% FBS. After 24 hrs, test compounds and vehicle controls were added to appropriate wells so the final volume was 100 μl in each well. The cells were cultured for the desired test exposure period (72 hrs) at 37° C. and 5% CO2. The assay plates were removed from 37° C. incubator and 20 μl/well of CellTiter-Blue® Reagent was added. The plates were incubated using standard cell culture conditions for 1-4 hours and the plates were shaken for 10 seconds and record fluorescence at 560/590 nm.

tubulin = test: Tubulin polymerization assay; format: biochemical; settings: for % Inhibition: Vmax normalized to tubulin only control; for % D.O.P.: degree of polymerization relative to tubulin control
Description: A96-well half-area clear flat-bottom microplate (Corning® #3697) was pre-heated in a plate reader (Cytation 3, BioTek) at 37° C. for 15 minutes prior to the start of each assay. Tubulin polymerization buffer (80 mM PIPES pH 6.9, 2 mM MgCl2, 0.5 mM EGTA, 15% glycerol, 1 mM GTP) was prepared from stock solutions and placed on ice. Inhibitors were prepared to M concentrations in buffer (80 mM PIPES pH 6.9, 2 mM MgCl2, 0.5 mM EGTA, 5% DMSO) from DMSO stock solutions. After the assay plate was pre-warmed, 10 μL of inhibitor or buffer control was added to selected wells. Every assay contained a tubulin only negative control for normalization of data, and a batabulin positive control. The assay plate was incubated at 37° C. for 3 minutes. During this time, a frozen aliquot of tubulin (10 mg/mL) in buffer (80 mM PIPES pH 6.9, 2 mM MgCl2, 0.5 mM EGTA) was defrosted by placing in a room temperature water bath. Once thawed, 200 μL of tubulin was mixed with 420 μL ice cold tubulin polymerization buffer (3 mg/mL tubulin in 80 mM PIPES, pH 6.9, 2 mM MgCl2, 0.5 mM EGTA, 1 mM GTP, 10.2% glycerol). To a 96-well plate on ice, aliquots of 100 μL tubulin was added to each well. From this plate, 90 μL of tubulin was immediately pipetted into all sample wells of the warmed assay plate using a multi-channel pipette. The assay plate was immediately put in the reader at 37° C. and shook for 5 s with orbital shaking at medium speed. The reader recorded the absorbance at 340 nm every 15 s for 30 min.
The resulting absorbance curves were normalized by subtracting each data point by the absorbance at time 0.
The largest change in absorbance over the assay time course was also recorded and related to the tubulin control as the % degree of polymerization (% D.O.P.).

K562 cells = test: CellTiter-Blue cell viability, K562; format: cell-based; settings: Homo sapiens, 72 hrs exposure
Description: as §1

MV4-11 cells = test: CellTiter-Blue cell viability, MV-4-11; format: cell-based; settings: Homo sapiens, 72 hrs exposure
Description: as §1

SMILES | IC50 (MOLM-13 cells) [nM] | % Inhibition (tubulin) | % D.O.P. (tubulin) | IC50 (K562 cells) [nM] | IC50 (MV4-11 cells) [nM]
CN(C)S(=O)(=O)c1c(F)c(F)c(F)c(F)c1F [Compound I-1, 2,3,4,5,6-pentafluoro-N,N-dimethylbenzenesulfonamide] | 1000 to 10000 | A (<10%) | A (>85%) | > 10000 | 1000 to 10000
CN(C)S(=O)(=O)c1c(F)c(F)c(F)c(F)c1OCc1ccccc1 [Compound I-2, 2-(benzyloxy)-3,4,5,6-tetrafluoro-N,N-dimethylbenzenesulfonamide] | 1000 to 10000 | – | – | > 10000 | 100 to 1000
CC(C)Oc1c(F)c(F)c(F)c(F)c1S(=O)(=O)N(C)C [Compound I-6, 2,3,4,5-tetrafluoro-6-isopropoxy-N,N-dimethylbenzenesulfonamide] | 1000 to 10000 | – | – | > 10000 | 1000 to 10000
CN(C)S(=O)(=O)c1c(F)c(F)c(F)c(F)c1OC(F)F [Compound I-8, 2-(difluoromethoxy)-3,4,5,6-tetrafluoro-N,N-dimethylbenzenesulfonamide] | > 10000 | – | – | > 10000 | 1000 to 10000
CN(C)S(=O)(=O)c1c(F)c(F)c(F)c(F)c1OCc1ccc(F)cc1F [Compound I-16, 2-((2,4-difluorobenzyl)oxy)-3,4,5,6-tetrafluoro-N,N-dimethylbenzenesulfonamide] | 1000 to 10000 | – | – | > 10000 | 100 to 1000
CN(C)S(=O)(=O)c1c(F)c(F)c(F)c(F)c1OCc1ccc(C(N)=O)cc1 [Compound I-18, 4-((2-(N,N-dimethylsulfamoyl)-3,4,5,6-tetrafluorophenoxy)methyl)benzamide] | 1000 to 10000 | – | – | > 10000 | 1000 to 10000
CN(C)S(=O)(=O)c1c(F)c(F)c(F)c(F)c1OCc1ccccn1 [Compound I-19, 2,3,4,5-tetrafluoro-N,N-dimethyl-6-(pyridin-2-ylmethoxy)benzenesulfonamide] | 1000 to 10000 | – | – | > 10000 | 1000 to 10000
CN(C)S(=O)(=O)c1c(F)c(F)c(F)c(F)c1OC(=O)OC(C)(C)C [Compound I-21, tert-butyl (2-(N,N-dimethylsulfamoyl)-3,4,5,6-tetrafluorophenyl) carbonate] | > 10000 | – | – | > 10000 | > 10000
CC(C)S(=O)(=O)Oc1c(F)c(F)c(F)c(F)c1S(=O)(=O)N(C)C [Compound I-22, 2-(N,N-dimethylsulfamoyl)-3,4,5,6-tetrafluorophenyl propane-2-sulfonate] | 1000 to 10000 | – | – | > 10000 | –
CN(C)S(=O)(=O)c1c(F)c(F)c(F)c(F)c1Cc1ccccc1 [Compound I-24, 2-benzyl-3,4,5,6-tetrafluoro-N,N-dimethylbenzenesulfonamide] | 1000 to 10000 | – | – | > 10000 | 1000 to 10000
Cc1c(F)c(F)c(F)c(F)c1S(=O)(=O)N(C)C [Compound I-25, 2,3,4,5-tetrafluoro-N,N,6-trimethylbenzenesulfonamide] | 1000 to 10000 | – | – | > 10000 | –
CC(=O)c1c(F)c(F)c(F)c(F)c1S(=O)(=O)N(C)C [Compound I-26, 2-acetyl-3,4,5,6-tetrafluoro-N,N-dimethylbenzenesulfonamide] | 1000 to 10000 | – | – | > 10000 | 1000 to 10000
COC(=O)c1c(F)c(F)c(F)c(F)c1S(=O)(=O)N(C)C [Compound I-31, methyl 2-(N,N-dimethylsulfamoyl)-3,4,5,6-tetrafluorobenzoate] | 1000 to 10000 | – | – | > 10000 | 100 to 1000
CC(C)COC(=O)c1c(F)c(F)c(F)c(F)c1S(=O)(=O)N(C)C [Compound I-32, isobutyl 2-(N,N-dimethylsulfamoyl)-3,4,5,6-tetrafluorobenzoate] | 1000 to 10000 | – | – | > 10000 | 100 to 1000
CN(C)C(=O)c1c(F)c(F)c(F)c(F)c1S(=O)(=O)N(C)C [Compound I-37, 2-(N,N-dimethylsulfamoyl)-3,4,5,6-tetrafluoro-N,N-dimethylbenzamide] | 1000 to 10000 | – | – | > 10000 | 1000 to 10000
CN(C)S(=O)(=O)c1c(F)c(F)c(F)c(F)c1C1CC1 [Compound I-39, 2-cyclopropyl-3,4,5,6-tetrafluoro-N,N-dimethylbenzenesulfonamide] | 1000 to 10000 | – | – | > 10000 | 1000 to 10000
CN(C)S(=O)(=O)c1c(F)c(F)c(F)c(F)c1NCc1ccccc1 [Compound I-48, 2-(benzylamino)-3,4,5,6-tetrafluoro-N,N-dimethylbenzenesulfonamide] | 1000 to 10000 | – | – | > 10000 | 1000 to 10000
CNc1c(F)c(F)c(F)c(F)c1S(=O)(=O)N(C)C [Compound I-49, 2,3,4,5-tetrafluoro-N,N-dimethyl-6-(methylamino)benzenesulfonamide] | 1000 to 10000 | – | – | > 10000 | 1000 to 10000
CN(C)S(=O)(=O)c1c(F)c(F)c(F)c(F)c1Nc1cccnc1 [Compound I-52, 2,3,4,5-tetrafluoro-N,N-dimethyl-6-(pyridin-3-ylamino)benzenesulfonamide] | > 10000 | – | – | 1000 to 10000 | 1000 to 10000
CN(C)S(=O)(=O)c1c(F)c(F)c(F)c(F)c1NCC(F)F [Compound I-54, 2-((2,2-difluoroethyl)amino)-3,4,5,6-tetrafluoro-N,N-dimethylbenzenesulfonamide] | 1000 to 10000 | – | – | > 10000 | 1000 to 10000
COc1ccc(NS(=O)(=O)c2c(F)c(F)c(F)c(F)c2OC(C)C)cc1F [Compound I-61, 2,3,4,5-tetrafluoro-N-(3-fluoro-4-methoxyphenyl)-6-isopropoxybenzenesulfonamide] | 100 to 1000 | A (<10%) | A (>85%) | 100 to 1000 | 100 to 1000
COc1ccc(NS(=O)(=O)c2c(F)c(F)c(F)c(F)c2OCc2ccccc2)cc1F [Compound I-62, 2-(benzyloxy)-3,4,5,6-tetrafluoro-N-(3-fluoro-4-methoxyphenyl)benzenesulfonamide] | > 10000 | A (<10%) | – | > 10000 | > 10000
COc1ccc(NS(=O)(=O)c2c(F)c(F)c(F)c(F)c2OC)cc1F [Compound I-64, 2,3,4,5-tetrafluoro-N-(3-fluoro-4-methoxyphenyl)-6-methoxybenzenesulfonamide] | 100 to 1000 | A (<10%) | A (>85%) | 100 to 1000 | ≤ 100
COc1ccc(NS(=O)(=O)c2c(F)c(F)c(F)c(F)c2OCC(F)F)cc1F [Compound I-67, 2-(2,2-difluoroethoxy)-3,4,5,6-tetrafluoro-N-(3-fluoro-4-methoxyphenyl)benzenesulfonamide] | 100 to 1000 | C (>20%) | B (< 85%) | 100 to 1000 | 100 to 1000
COc1ccc(NS(=O)(=O)c2c(F)c(F)c(F)c(F)c2OCC(F)(F)F)cc1F [Compound I-68, 2,3,4,5-tetrafluoro-N-(3-fluoro-4-methoxyphenyl)-6-(2,2,2-trifluoroethoxy)benzenesulfonamide] | 1000 to 10000 | B (10-20%) | B (< 85%) | 100 to 1000 | 100 to 1000
COc1ccc(NS(=O)(=O)c2c(F)c(F)c(F)c(F)c2OCC2CC2)cc1F [Compound I-71, 2-(cyclopropylmethoxy)-3,4,5,6-tetrafluoro-N-(3-fluoro-4-methoxyphenyl)benzenesulfonamide] | > 10000 | A (<10%) | A (>85%) | 1000 to 10000 | 1000 to 10000
COc1ccc(NS(=O)(=O)c2c(F)c(F)c(F)c(F)c2Oc2ccccc2)cc1F [Compound I-76, 2,3,4,5-tetrafluoro-N-(3-fluoro-4-methoxyphenyl)-6-phenoxybenzenesulfonamide] | 1000 to 10000 | C (>20%) | B (< 85%) | 100 to 1000 | –
COc1ccc(NS(=O)(=O)c2c(F)c(F)c(F)c(F)c2C(=O)O)cc1F [Compound I-92, 2,3,4,5-tetrafluoro-6-(N-(3-fluoro-4-methoxyphenyl)sulfamoyl)benzoic acid] | 1000 to 10000 | – | – | > 10000 | 100 to 1000

Reference: patent US12559454B2, “Benzenesulfonamide derivatives and uses thereof” (2692372 Ontario, Inc., priority 2019, dated 2026)
